These results are taken from ChEMBL document CHEMBL1139661, “Arylaminoethyl amides as noncovalent inhibitors of cathepsin S. Part 2: Optimization of P1 and N-aryl” (Bioorg Med Chem Lett, 2006).

Format in all cases: ADME, organism-based
The nature of data set [1]: (§1) Half life in Wistar rat at 10 mg/kg. Also on record: dose 10 mg/kg. The conditions noted are these: Wistar, in vivo.
A short description of data set [2]: Cmax in Wistar rat at 10 mg/kg, po. Also on record: dose 10 mg/kg, route oral. Conditions: in vivo; call rule not given here.
Data set [3] in a line: AUC in Wistar rat at 10 mg/kg, po. Also on record: dose 10 mg/kg, route oral. Conditions: plasma.
Data set [4] can be described thus: Oral bioavailability in Wistar rat at 10 mg/kg, po. Conditions: in vivo.
The next data set has as its system Rattus norvegicus. The description is as §1. Also on record: dose 10 mg/kg. Conditions: in vivo.

One may read the half-life as how long it takes for the measured level to halve. A higher half-life goes with slow decline. As a reminder, the Cmax is the peak of the concentration-time curve. The AUC is concentration integrated over time. Read a high AUC as high exposure. The term bioavailability denotes the share of a dose that reaches the circulation, judged against a reference dose that is usually intravenous. Low readings indicate poor availability, high ones good availability.

Take `COc1cccc(C(=O)N[C@@H](CC(C)(C)C)C(=O)N[C@@H](CC(=O)O)CN2CCc3cc(F)ccc32)c1`: the half-life in data set [1] was 33.6 min. The compound further registered a Cmax in data set [2] of 45 nM. Besides, the AUC in data set [3] is 100 ng·h/mL. The bioavailability in data set [4] was found to be 2%.

As for `CCOC(=O)C[C@@H](CN1CCc2cc(F)ccc21)NC(=O)[C@H](CCC1CCCCC1)NC(=O)c1cccc(OC)c1`, in the data set on Rattus norvegicus, the T1/2 result is “Not Active”. Besides, the Cmax in data set [2] was found to be 293 nM. The compound further had an AUC in data set [3] of 308 ng·h/mL. In data set [4], the bioavailability worked out at 8%.
